Measured values published in patent US9999655B2, “Use of MKS inhibitor peptide-containing compositions for treating non-small cell lung cancer with same” (Moerae Matrix, Inc., priority 2015, dated 2018).
Where no end group is shown, it is not given here.

What was measured:
[1] = molecular target: Ca2+/calmodulin-dependent protein kinase II (CaMKII); conditions: cited from earlier work
[2] = system: advanced NSCLC; conditions: patients with advanced NSCLC; P=0.04; cited from earlier work
[3] = system: 266 human kinases; assay type: biochemical; conditions: peptide at 100 μM, 266 human kinases
Description: (§1) Every kinase activity measurement was conducted in duplicate.
(§2) IC50 (half maximal inhibitory concentrations) value for the MK2 inhibitor peptides identified below was determined using Millipore's IC50 Profiler Express service. […] Specifically, in these assays, a positively charged substrate is phosphorylated with a radiolabeled phosphate group from an ATP if the kinase is not inhibited by an inhibitor peptide. The positively charged substrate then is attracted to a negatively charged filter membrane, quantified with a scintillation counter, and compared to a 100% activity control.

[4] = molecular target: Calcium/Calmodulin-Dependent Protein Kinase I (CaMKI) (Homo sapiens, UniProt Q14012); assay: biochemical; conditions: read-out: inhibition of kinase activity of CaMKI
Description: as §1, §2

[5] = molecular target: (Homo sapiens, UniProt Q15746); assay type: biochemical; conditions: MLCK(h); peptide 100 μM
Description: as §1, §2

Chain of Calcium/Calmodulin-Dependent Protein Kinase I (CaMKI) (Q14012 whole entry): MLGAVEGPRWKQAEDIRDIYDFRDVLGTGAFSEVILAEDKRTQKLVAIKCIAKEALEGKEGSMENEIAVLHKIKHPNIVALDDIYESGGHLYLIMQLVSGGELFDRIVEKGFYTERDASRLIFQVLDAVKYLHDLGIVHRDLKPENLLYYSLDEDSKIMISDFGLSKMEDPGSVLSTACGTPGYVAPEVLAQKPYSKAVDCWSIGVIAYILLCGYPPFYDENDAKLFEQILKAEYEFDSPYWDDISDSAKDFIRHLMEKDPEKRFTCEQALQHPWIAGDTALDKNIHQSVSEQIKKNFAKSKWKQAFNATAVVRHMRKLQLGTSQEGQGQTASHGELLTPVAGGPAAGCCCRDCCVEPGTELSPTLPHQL
Chain of (Homo sapiens, UniProt Q15746) (Q15746 whole entry): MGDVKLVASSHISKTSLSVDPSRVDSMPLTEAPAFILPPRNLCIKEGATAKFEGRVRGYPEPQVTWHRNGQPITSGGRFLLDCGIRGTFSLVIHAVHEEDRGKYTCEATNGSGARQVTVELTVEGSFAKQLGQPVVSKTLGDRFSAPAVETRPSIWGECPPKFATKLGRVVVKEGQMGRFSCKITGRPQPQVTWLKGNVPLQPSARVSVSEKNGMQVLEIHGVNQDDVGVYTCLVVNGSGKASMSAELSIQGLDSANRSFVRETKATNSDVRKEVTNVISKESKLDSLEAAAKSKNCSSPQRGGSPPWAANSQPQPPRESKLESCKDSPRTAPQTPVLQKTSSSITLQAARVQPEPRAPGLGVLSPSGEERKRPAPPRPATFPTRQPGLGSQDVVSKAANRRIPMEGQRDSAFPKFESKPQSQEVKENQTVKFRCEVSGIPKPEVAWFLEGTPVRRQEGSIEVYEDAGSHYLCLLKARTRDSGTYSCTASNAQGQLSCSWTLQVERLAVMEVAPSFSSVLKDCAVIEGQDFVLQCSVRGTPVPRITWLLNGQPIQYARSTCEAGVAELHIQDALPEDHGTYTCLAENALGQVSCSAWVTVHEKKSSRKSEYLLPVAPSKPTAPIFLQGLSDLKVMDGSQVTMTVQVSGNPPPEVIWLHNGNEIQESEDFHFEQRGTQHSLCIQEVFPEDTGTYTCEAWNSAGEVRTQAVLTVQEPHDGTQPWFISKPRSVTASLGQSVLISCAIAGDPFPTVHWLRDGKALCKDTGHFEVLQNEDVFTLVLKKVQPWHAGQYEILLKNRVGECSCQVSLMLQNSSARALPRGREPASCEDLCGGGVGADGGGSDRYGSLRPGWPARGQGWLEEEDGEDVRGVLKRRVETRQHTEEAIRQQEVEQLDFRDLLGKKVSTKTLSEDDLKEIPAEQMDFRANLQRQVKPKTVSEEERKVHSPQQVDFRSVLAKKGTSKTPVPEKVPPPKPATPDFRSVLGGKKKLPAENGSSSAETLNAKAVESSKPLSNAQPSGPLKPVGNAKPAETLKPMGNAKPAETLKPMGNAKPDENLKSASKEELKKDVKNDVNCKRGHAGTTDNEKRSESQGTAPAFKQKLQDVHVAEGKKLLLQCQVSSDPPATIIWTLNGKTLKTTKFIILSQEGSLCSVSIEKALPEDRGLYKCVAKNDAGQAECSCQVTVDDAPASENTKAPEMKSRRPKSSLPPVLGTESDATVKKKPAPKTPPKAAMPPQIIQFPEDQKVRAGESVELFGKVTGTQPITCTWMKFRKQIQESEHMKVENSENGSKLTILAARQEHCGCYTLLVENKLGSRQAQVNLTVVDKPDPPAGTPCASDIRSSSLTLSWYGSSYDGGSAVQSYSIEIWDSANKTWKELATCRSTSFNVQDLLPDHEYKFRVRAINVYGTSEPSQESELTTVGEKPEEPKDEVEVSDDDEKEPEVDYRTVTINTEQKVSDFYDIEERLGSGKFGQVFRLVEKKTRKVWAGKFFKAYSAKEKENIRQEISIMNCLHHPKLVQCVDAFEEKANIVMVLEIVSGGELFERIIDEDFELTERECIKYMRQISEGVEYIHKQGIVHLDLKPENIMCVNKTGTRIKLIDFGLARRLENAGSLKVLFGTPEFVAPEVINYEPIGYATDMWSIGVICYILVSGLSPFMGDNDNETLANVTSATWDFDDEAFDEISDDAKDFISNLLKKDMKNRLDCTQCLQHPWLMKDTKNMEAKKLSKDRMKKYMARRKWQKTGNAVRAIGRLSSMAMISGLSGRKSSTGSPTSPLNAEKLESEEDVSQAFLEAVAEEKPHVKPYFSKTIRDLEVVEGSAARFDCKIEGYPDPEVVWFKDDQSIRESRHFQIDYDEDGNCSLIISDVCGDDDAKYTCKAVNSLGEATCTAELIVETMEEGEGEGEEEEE

| Substance | off-target kinase inhibition (specificity) [3] | further results |
| --- | --- | --- |
| autocamtide-2 related inhibitory peptide [AIP] |  | IC50 [1]: 100 nM |
| cisplatin/vinorelbine |  | overall survival [2]: 10.1 months |
| KAFAKLAARLYRKALARQLGVAA [MMI-0400] | very limited off-target kinase inhibition |  |
| HRRIKAWLKKIKALARQLGVAA (Mammalian) [MMI-0500] | very limited off-target kinase inhibition |  |
| YARAAARQARAKALNRQLGVA (Mammalian) [MMI-0200] | very limited off-target kinase inhibition |  |
| YARAAARQARAKALARQLGVAA [MMI-0100] |  | inhibition at 100 µM [4]: > 65%; % activity [5]: 85% |
| FAKLAARLYRKALARQLGVAA [MMI-0300] | very limited off-target kinase inhibition |  |
